Assay results as given in the NIST ThermoML archive (doi:10.1016/j.jct.2007.01.008).
Several values for one entry are separate records, joined by “and”; a condition that tells them apart may be missing. Equal values may be shown once. ± gives the expanded uncertainty stated by the source.

Settings: for surface tension liquid-gas: Ring tensiometer; for viscosity / mass density: 101.33 kPa, Liquid; for viscosity: Capillary tube (Ostwald / Ubbelohde) method; for mass density: Vibrating tube method

For `CCC(=O)CC` [pentan-3-one], the surface tension liquid-gas (283.15 K) was 26.5 ± 0.4 mN/m, the viscosity (283.15 K) was 0.515 ± 0.004 mPa·s and the mass density (283.15 K) was 824.27 ± 0.11 kg/m3. The surface tension liquid-gas (285.15 K) was 26.3 ± 0.4 mN/m, the viscosity (285.15 K) was 0.507 ± 0.004 mPa·s and the mass density (285.15 K) was 822.28 ± 0.11 kg/m3. It also gave a surface tension liquid-gas (287.15 K) of 26.1 ± 0.4 mN/m, a viscosity (287.15 K) of 0.499 ± 0.004 mPa·s and a mass density (287.15 K) of 820.3 ± 0.11 kg/m3. For the same compound, the surface tension liquid-gas (289.15 K) was 26 ± 0.4 mN/m, the viscosity (289.15 K) was 0.492 ± 0.004 mPa·s and the mass density (289.15 K) was 818.31 ± 0.11 kg/m3. For the same compound, the surface tension liquid-gas (291.15 K) was 25.8 ± 0.4 mN/m, the viscosity (291.15 K) was 0.484 ± 0.003 mPa·s and the mass density (291.15 K) was 816.33 ± 0.11 kg/m3. The viscosity (292.15 K) was 0.48 ± 0.003 mPa·s, the surface tension liquid-gas (293.15 K) was 25.6 ± 0.4 mN/m and the viscosity (293.15 K) was 0.476 ± 0.003 mPa·s. For the same compound, the mass density (293.15 K) was 814.34 ± 0.11 kg/m3, the surface tension liquid-gas (295.15 K) was 25.4 ± 0.4 mN/m and the viscosity (295.15 K) was 0.468 ± 0.003 mPa·s. The mass density (295.15 K) was 812.36 ± 0.11 kg/m3, the surface tension liquid-gas (297.15 K) was 25.2 ± 0.4 mN/m and the viscosity (297.15 K) was 0.46 ± 0.003 mPa·s. For the same compound, the mass density (297.15 K) was 810.37 ± 0.11 kg/m3, the viscosity (298.15 K) was 0.458 ± 0.003 mPa·s and the mass density (298.15 K) was 809.25 ± 0.11 kg/m3 and 810.86 ± 0.11 kg/m3. It also gave a surface tension liquid-gas (299.15 K) of 25 ± 0.4 mN/m, a viscosity (299.15 K) of 0.453 ± 0.003 mPa·s and a mass density (299.15 K) of 808.39 ± 0.11 kg/m3. It also gave a surface tension liquid-gas (301.15 K) of 24.8 ± 0.4 mN/m, a viscosity (301.15 K) of 0.445 ± 0.003 mPa·s and a mass density (301.15 K) of 806.4 ± 0.11 kg/m3. It also gave a surface tension liquid-gas (303.15 K) of 24.6 ± 0.4 mN/m, a viscosity (303.15 K) of 0.437 ± 0.003 mPa·s and a mass density (303.15 K) of 804.42 ± 0.11 kg/m3. It also gave a surface tension liquid-gas (305.15 K) of 24.4 ± 0.4 mN/m, a viscosity (305.15 K) of 0.429 ± 0.003 mPa·s and a mass density (305.15 K) of 802.43 ± 0.12 kg/m3. The surface tension liquid-gas (307.15 K) was 24.2 ± 0.4 mN/m, the viscosity (307.15 K) was 0.421 ± 0.003 mPa·s and the mass density (307.15 K) was 800.45 ± 0.12 kg/m3. It also gave a surface tension liquid-gas (309.15 K) of 24 ± 0.4 mN/m, a viscosity (309.15 K) of 0.414 ± 0.003 mPa·s and a mass density (309.15 K) of 798.46 ± 0.12 kg/m3. The surface tension liquid-gas (311.15 K) was 23.8 ± 0.4 mN/m, the viscosity (311.15 K) was 0.406 ± 0.003 mPa·s and the mass density (311.15 K) was 796.48 ± 0.12 kg/m3. The surface tension liquid-gas (313.15 K) was 23.6 ± 0.4 mN/m, the viscosity (313.15 K) was 0.398 ± 0.003 mPa·s and the mass density (313.15 K) was 794.49 ± 0.12 kg/m3. It also gave a surface tension liquid-gas (315.15 K) of 23.4 ± 0.4 mN/m, a viscosity (315.15 K) of 0.39 ± 0.003 mPa·s and a mass density (315.15 K) of 792.51 ± 0.12 kg/m3. It also gave a surface tension liquid-gas (317.15 K) of 23.3 ± 0.4 mN/m, a viscosity (317.15 K) of 0.382 ± 0.003 mPa·s and a mass density (317.15 K) of 790.52 ± 0.12 kg/m3. For the same compound, the surface tension liquid-gas (319.15 K) was 23.1 ± 0.4 mN/m, the viscosity (319.15 K) was 0.375 ± 0.003 mPa·s and the mass density (319.15 K) was 788.54 ± 0.12 kg/m3. The surface tension liquid-gas (321.15 K) was 22.9 ± 0.3 mN/m, the viscosity (321.15 K) was 0.367 ± 0.003 mPa·s and the mass density (321.15 K) was 786.55 ± 0.12 kg/m3. For the same compound, the surface tension liquid-gas (323.15 K) was 22.7 ± 0.3 mN/m, the viscosity (323.15 K) was 0.359 ± 0.003 mPa·s and the mass density (323.15 K) was 784.57 ± 0.12 kg/m3. The surface tension liquid-gas (325.15 K) was 22.5 ± 0.3 mN/m, the viscosity (325.15 K) was 0.351 ± 0.003 mPa·s and the mass density (325.15 K) was 782.59 ± 0.12 kg/m3. The surface tension liquid-gas (327.15 K) was 22.3 ± 0.3 mN/m, the viscosity (327.15 K) was 0.343 ± 0.003 mPa·s and the mass density (327.15 K) was 780.6 ± 0.12 kg/m3. It also gave a surface tension liquid-gas (329.15 K) of 22.1 ± 0.3 mN/m, a viscosity (329.15 K) of 0.336 ± 0.003 mPa·s and a mass density (329.15 K) of 778.62 ± 0.12 kg/m3.
